Values of other authors, collected in patent publication US20060068011A1, “Simultaneous encapsulation technique for use in pharmaceutical compositions” (Wyeth, priority 2004, published 2006).

solubility in water: sparingly water soluble
SMILES: COc1ccccc1OCC(O)CO (stereo not shown) [Guaifenesin, guaifenesin]
